Reference: ChEMBL document CHEMBL5212743, “Selectivity Literature for EUbOPEN Chemogenomics Library wave 3” (2023)
Each block holds one compound with its values, some of them ahead of it.

Tests used:
[1] = target: T1, Alpha-1B adrenergic receptor (Homo sapiens, UniProt P35368); test: Selectivity interaction (Receptors and enzyme panel (internal screening at GSK)) EUB0000215b ADRA1B
T1 sequence (P35368 whole entry): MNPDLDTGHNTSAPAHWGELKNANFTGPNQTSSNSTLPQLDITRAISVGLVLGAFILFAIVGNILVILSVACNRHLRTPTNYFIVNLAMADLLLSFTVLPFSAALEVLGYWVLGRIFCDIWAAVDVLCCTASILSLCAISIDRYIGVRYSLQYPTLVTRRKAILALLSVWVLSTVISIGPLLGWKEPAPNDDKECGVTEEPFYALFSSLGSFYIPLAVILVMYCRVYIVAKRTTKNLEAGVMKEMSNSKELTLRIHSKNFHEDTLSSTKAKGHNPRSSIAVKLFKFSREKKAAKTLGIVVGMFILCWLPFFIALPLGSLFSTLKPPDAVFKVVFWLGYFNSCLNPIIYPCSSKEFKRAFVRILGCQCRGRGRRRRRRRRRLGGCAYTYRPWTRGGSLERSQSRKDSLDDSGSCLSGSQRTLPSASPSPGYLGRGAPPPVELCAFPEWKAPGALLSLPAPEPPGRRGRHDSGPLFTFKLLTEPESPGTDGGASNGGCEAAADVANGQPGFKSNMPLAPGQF

[2] = target: T2, Histone-lysine N-methyltransferase EZH1 (Homo sapiens, UniProt Q92800); test: Selectivity interaction (Methyltransferase panel (HotSpot screen, Reaction Biology, radioisotope-based filter binding assays)) EUB0000215b EZH1
T2 sequence (Q92800 whole entry): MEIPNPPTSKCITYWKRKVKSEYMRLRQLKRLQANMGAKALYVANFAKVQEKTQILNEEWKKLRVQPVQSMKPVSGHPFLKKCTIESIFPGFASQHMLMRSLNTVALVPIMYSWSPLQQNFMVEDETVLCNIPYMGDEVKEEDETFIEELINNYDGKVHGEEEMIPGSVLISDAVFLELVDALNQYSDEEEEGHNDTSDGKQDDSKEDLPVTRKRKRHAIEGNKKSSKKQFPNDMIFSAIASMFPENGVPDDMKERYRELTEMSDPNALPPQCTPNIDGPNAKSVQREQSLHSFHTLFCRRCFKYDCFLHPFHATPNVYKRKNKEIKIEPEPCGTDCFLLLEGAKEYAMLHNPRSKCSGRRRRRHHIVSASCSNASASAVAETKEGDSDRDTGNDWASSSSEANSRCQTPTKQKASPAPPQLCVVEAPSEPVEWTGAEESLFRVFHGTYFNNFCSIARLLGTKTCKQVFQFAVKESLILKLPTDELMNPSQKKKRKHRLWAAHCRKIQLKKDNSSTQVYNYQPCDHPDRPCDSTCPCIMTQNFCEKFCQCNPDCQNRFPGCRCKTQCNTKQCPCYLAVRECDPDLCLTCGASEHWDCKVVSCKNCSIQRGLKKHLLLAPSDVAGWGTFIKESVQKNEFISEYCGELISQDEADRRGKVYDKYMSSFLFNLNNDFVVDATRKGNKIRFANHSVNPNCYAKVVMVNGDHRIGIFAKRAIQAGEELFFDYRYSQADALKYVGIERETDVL

[3] = target: High affinity nerve growth factor receptor (Homo sapiens, UniProt P04629); test: Selectivity interaction (KinomeScan (DiscoverX, competition-binding assay))
[4] = target: Serine/threonine-protein kinase Sgk2 (Homo sapiens) (UniProt Q9HBY8); test: Selectivity interaction (Kinase panel (Millipore)) EUB0000153b SGK2; conditions: at 10 µM
[5] = target: RAC-alpha serine/threonine-protein kinase (Homo sapiens, UniProt P31749); test: Selectivity interaction (Kinase panel (enzymatic assay)) EUB0000153b AKT1
[6] = target: cAMP-dependent protein kinase catalytic subunit PRKX (Homo sapiens) (UniProt P51817); test: Selectivity interaction (Kinase panel (Millipore)) EUB0000153b PRKX; conditions: at 10 µM
[7] = target: Rho-associated protein kinase 2 (Homo sapiens) (UniProt O75116); test: Selectivity interaction (Kinase panel (Millipore)) EUB0000153b ROCK2; conditions: at 10 µM
[8] = target: T3, Serine/threonine-protein kinase Sgk1 (Homo sapiens) (UniProt O00141); test: Selectivity interaction (Kinase panel (Millipore)) EUB0000153b SGK1; conditions: at 10 µM
T3 sequence (whole entry): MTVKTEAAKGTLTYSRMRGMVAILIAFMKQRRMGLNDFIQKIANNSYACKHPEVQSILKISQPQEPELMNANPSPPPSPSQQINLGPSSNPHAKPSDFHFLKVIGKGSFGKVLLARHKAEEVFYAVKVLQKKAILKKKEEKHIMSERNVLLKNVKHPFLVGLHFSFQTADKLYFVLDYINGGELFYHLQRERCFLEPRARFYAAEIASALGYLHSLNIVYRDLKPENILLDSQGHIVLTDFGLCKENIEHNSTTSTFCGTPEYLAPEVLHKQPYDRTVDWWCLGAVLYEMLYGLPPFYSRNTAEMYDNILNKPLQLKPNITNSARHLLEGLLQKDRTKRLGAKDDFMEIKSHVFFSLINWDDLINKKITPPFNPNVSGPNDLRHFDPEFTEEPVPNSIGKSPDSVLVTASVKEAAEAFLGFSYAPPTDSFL

[9] = target: Vascular endothelial growth factor receptor 2 (Homo sapiens, UniProt P35968); test: Selectivity interaction (Kinase panel (enzymatic assay)) EUB0000153b KDR
[10] = target: Glycogen synthase kinase-3 beta (Homo sapiens, UniProt P49841); test: Selectivity interaction (Kinase panel (enzymatic assay)) EUB0000153b GSK3B
[11] = target: Ribosomal protein S6 kinase alpha-2 (Homo sapiens) (UniProt Q15349); test: Selectivity interaction (Kinase panel (Millipore)) EUB0000153b RPS6KA2; conditions: at 10 µM
[12] = target: NUAK family SNF1-like kinase 1 (Homo sapiens) (UniProt O60285); test: Selectivity interaction (Kinase panel (Millipore)) EUB0000153b NUAK1; conditions: at 10 µM
[13] = target: Phosphatidylinositol 4,5-bisphosphate 3-kinase catalytic subunit gamma isoform (Homo sapiens, UniProt P48736); test: Selectivity interaction (Kinase panel (enzymatic assay)) EUB0000153b PIK3CG
[14] = target: Tyrosine-protein kinase SYK (Homo sapiens, UniProt P43405); test: Selectivity interaction (Kinase panel (enzymatic assay)) EUB0000153b SYK
[15] = target: Inhibitor of nuclear factor kappa-B kinase subunit alpha (Homo sapiens, UniProt O15111); test: Selectivity interaction (Kinase panel (enzymatic assay)) EUB0000153b CHUK
[16] = target: Ribosomal protein S6 kinase alpha-6 (Homo sapiens) (UniProt Q9UK32); test: Selectivity interaction (Kinase panel (Millipore)) EUB0000153b RPS6KA6; conditions: at 10 µM
[17] = target: TGF-beta receptor type-1 (Homo sapiens, UniProt P36897); test: Selectivity interaction (Kinase panel (enzymatic assay)) EUB0000153b TGFBR1
[18] = target: Mitogen-activated protein kinase kinase kinase 5 (Homo sapiens, UniProt Q99683); test: Selectivity interaction (Kinase panel (enzymatic assay)) EUB0000153b MAP3K5
[19] = target: Tyrosine-protein kinase JAK2 (Homo sapiens, UniProt O60674); conditions: at 1 µM
[20] = target: T4, Gamma-aminobutyric acid receptor subunit alpha-1 (Homo sapiens, UniProt P14867); test: Selectivity interaction (GPCR panel (PDSP screen)) EUB0000739a GABRA1
T4 sequence (P14867 whole entry): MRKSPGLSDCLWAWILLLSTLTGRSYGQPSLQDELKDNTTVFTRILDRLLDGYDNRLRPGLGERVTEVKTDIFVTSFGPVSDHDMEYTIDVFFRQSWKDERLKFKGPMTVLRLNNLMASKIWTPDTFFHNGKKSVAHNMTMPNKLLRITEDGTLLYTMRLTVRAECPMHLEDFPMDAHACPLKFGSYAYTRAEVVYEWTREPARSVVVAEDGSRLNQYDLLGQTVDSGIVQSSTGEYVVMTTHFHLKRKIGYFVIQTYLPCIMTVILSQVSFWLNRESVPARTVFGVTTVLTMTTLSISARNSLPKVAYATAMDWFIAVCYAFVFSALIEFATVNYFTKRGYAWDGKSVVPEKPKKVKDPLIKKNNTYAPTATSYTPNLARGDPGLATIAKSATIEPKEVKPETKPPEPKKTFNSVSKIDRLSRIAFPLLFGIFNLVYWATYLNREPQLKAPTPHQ

[21] = target: Tyrosine-protein kinase ABL1 (Homo sapiens, UniProt P00519); conditions: at 1 µM
[22] = target: T1, Alpha-1B adrenergic receptor; test: Selectivity interaction (GPCR panel (PDSP screen)) EUB0000739a ADRA1B
[23] = target: Mitogen-activated protein kinase kinase kinase kinase 5 (Homo sapiens) (UniProt Q9Y4K4); conditions: at 1 µM
[24] = target: Activin receptor type-2A (Homo sapiens) (UniProt P27037); conditions: at 1 µM
[25] = target: Mitogen-activated protein kinase kinase kinase kinase 4 (Homo sapiens) (UniProt O95819); conditions: at 1 µM
[26] = target: Epidermal growth factor receptor (Homo sapiens, UniProt P00533); conditions: at 1 µM
[27] = target: Sodium channel regulatory subunit beta-2 (Homo sapiens, UniProt O60939); test: Selectivity interaction (Enzyme and Receptor panel (MSD Pharma/Taiwan)) EUB0000753a SCN2B

Rho-associated protein kinase 2 (Homo sapiens), sequence (O75116 whole entry, looked up): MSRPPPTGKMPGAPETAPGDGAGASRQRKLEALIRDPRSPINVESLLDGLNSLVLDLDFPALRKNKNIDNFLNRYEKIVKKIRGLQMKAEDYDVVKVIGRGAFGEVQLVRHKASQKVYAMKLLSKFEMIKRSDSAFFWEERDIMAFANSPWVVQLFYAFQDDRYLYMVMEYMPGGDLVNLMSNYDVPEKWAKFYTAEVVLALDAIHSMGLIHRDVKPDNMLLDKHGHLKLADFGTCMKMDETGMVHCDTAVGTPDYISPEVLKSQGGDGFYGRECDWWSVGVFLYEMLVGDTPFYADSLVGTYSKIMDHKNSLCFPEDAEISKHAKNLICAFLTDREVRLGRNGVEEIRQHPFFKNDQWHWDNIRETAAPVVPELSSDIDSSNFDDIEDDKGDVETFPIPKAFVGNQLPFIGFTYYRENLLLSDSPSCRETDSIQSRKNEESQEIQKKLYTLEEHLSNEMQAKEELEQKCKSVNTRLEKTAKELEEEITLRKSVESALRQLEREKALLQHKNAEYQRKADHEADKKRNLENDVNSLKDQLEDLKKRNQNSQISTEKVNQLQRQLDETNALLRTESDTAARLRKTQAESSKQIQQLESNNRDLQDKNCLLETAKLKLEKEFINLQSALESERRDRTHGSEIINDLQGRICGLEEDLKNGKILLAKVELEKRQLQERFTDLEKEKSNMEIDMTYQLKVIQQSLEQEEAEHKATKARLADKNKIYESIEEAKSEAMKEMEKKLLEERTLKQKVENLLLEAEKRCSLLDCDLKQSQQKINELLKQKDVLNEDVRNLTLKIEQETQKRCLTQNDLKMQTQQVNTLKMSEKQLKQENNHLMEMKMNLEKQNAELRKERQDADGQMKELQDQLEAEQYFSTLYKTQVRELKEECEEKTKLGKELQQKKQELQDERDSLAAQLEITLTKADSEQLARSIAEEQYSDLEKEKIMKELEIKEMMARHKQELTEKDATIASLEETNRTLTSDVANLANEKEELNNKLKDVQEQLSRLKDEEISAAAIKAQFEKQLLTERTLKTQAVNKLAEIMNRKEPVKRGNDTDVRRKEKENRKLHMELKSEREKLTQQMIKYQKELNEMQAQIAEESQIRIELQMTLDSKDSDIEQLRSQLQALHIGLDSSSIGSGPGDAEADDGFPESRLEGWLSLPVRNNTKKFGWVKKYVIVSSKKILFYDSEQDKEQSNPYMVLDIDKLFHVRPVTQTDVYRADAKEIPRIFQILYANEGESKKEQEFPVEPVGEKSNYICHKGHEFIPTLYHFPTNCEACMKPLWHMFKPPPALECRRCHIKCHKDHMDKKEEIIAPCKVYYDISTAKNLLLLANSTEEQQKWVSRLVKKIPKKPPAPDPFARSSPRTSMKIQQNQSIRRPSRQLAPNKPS
Mitogen-activated protein kinase kinase kinase kinase 5 (Homo sapiens), sequence (Q9Y4K4 whole entry, looked up): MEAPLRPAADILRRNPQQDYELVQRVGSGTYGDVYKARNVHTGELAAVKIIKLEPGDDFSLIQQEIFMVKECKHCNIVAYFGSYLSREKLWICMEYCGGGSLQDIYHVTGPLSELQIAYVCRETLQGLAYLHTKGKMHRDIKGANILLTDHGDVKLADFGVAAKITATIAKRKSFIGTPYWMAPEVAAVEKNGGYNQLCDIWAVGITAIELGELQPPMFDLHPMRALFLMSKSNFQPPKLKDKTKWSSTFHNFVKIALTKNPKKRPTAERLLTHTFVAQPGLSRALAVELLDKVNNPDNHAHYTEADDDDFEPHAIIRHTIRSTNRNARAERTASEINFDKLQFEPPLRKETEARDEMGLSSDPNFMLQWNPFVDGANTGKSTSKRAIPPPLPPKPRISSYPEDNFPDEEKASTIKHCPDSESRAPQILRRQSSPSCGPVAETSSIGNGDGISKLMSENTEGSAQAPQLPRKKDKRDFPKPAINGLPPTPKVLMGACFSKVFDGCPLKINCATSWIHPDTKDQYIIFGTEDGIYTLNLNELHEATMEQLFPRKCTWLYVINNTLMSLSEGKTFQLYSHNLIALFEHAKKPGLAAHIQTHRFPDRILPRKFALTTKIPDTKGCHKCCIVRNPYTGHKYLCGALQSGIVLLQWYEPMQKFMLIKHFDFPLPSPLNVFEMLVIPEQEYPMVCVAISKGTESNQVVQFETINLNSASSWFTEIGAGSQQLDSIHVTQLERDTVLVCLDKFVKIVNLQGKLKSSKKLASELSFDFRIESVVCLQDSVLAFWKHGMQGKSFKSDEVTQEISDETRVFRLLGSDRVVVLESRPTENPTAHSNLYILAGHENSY
Phosphatidylinositol 4,5-bisphosphate 3-kinase catalytic subunit gamma isoform, sequence (P48736 whole entry, canonical isoform): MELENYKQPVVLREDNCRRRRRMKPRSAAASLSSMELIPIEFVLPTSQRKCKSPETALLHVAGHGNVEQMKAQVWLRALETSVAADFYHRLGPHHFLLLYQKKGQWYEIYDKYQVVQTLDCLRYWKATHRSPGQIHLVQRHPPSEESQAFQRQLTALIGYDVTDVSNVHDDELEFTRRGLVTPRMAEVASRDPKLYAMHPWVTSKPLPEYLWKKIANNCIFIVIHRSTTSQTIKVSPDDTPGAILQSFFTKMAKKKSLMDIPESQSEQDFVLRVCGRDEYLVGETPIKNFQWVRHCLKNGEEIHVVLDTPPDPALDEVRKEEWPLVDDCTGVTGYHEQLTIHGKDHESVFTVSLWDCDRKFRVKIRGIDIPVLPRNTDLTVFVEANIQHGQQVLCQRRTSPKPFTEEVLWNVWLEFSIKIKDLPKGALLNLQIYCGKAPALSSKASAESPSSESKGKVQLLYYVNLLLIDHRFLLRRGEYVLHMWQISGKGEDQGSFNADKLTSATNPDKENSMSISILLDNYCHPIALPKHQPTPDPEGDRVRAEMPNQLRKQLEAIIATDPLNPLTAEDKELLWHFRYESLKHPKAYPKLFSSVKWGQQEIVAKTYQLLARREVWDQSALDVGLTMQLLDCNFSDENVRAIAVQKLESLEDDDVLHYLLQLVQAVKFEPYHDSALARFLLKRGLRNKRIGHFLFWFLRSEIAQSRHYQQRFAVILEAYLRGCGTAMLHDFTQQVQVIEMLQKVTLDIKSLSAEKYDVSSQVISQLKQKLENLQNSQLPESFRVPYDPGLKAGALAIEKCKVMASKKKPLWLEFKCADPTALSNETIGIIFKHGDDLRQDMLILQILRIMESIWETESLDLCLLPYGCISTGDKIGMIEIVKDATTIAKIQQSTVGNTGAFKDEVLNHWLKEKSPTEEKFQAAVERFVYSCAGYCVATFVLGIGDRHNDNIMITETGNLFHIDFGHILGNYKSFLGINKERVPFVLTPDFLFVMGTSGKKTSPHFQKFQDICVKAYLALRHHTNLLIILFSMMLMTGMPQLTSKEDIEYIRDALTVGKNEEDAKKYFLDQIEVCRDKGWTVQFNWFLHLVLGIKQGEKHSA
TGF-beta receptor type-1, sequence (P36897 whole entry): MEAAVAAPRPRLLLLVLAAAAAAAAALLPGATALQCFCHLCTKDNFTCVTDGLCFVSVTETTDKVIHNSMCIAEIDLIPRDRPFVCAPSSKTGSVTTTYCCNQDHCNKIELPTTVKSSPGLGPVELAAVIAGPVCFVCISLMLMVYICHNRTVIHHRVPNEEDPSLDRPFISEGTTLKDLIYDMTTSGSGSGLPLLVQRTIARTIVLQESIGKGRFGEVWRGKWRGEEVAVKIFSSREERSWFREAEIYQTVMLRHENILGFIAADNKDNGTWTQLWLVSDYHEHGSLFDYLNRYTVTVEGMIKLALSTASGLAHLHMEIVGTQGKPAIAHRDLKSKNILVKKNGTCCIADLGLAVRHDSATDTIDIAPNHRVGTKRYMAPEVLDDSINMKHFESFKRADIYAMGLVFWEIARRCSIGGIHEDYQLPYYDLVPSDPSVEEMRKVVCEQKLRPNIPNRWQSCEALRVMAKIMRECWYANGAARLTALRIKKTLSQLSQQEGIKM
Ribosomal protein S6 kinase alpha-2 (Homo sapiens), sequence (Q15349 whole entry, looked up): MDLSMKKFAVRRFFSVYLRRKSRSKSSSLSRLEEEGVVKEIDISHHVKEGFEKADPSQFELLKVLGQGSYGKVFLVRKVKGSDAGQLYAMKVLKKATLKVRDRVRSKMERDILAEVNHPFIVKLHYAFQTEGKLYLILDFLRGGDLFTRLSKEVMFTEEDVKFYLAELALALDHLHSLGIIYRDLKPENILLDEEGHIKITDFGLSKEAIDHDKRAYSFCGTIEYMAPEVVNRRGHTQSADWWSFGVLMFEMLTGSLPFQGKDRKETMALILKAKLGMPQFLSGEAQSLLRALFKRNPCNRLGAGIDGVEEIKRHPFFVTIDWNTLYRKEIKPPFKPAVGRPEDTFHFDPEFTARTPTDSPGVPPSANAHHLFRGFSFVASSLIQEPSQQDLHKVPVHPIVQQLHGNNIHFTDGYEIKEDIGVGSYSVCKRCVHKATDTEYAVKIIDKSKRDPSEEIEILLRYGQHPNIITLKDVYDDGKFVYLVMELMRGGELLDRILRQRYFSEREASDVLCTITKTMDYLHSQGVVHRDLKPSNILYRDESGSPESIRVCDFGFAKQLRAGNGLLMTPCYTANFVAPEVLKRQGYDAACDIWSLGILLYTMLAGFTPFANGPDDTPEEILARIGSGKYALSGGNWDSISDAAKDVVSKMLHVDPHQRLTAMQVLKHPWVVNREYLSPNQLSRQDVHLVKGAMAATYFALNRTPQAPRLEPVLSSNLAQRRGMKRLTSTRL
cAMP-dependent protein kinase catalytic subunit PRKX (Homo sapiens), sequence (P51817 whole entry): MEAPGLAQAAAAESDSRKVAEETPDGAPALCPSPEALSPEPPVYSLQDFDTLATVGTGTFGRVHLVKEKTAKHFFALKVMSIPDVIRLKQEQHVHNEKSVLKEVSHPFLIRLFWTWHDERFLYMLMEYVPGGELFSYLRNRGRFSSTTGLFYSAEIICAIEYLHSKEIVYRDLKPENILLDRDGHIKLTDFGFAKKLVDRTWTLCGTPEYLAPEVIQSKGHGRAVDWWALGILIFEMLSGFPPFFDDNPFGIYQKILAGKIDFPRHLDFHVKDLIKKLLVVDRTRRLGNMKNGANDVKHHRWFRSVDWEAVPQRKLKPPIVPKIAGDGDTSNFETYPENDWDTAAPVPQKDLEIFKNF

- % of control [19]: 34%
- Ki [20]: 5.07 µM
- % of control [21]: 47%
- Ki [22]: > 10 µM
SMILES: COc1cc(-c2cn([C@H]3CCc4ccccc4N(CC(F)(F)F)C3=O)nn2)ccc1-n1ccc(C)n1

- % of control [23]: 5.8%
- % of control [24]: 0%
- % of control [25]: 0%
- % of control [26]: 0%
- IC50 [27]: 1 µM
SMILES: COc1cc(-c2cn([C@H]3CCc4c(F)cccc4N(CC(F)(F)F)C3=O)nn2)ccc1-n1cnc(C)c1

The remaining lines, values behind:

SMILES: CCCc1cc(C)[nH]c(=O)c1CNC(=O)c1cc(-c2ccnc(N3CCN(C)CC3)c2)cc2c1cnn2C(C)C
- IC50 [1]: 10 µM
- IC50 [2]: 0.24 µM

SMILES: COc1ccc(COc2ccc(Cc3cnc(N)nc3N)cc2OC)cc1 [GW632580X]
- Kd [3]: < 0.1 µM

SMILES: CNc1nc(-c2ccc3c(N)n[nH]c3c2)cc(N2C[C@@H](C(=O)NC3CCCCC3)CC[C@H]2C)n1
- % of control [4]: 0%
- IC50 [5]: > 10 µM
- % of control [6]: 4%
- % of control [7]: 17%
- % of control [8]: 13%
- IC50 [9]: > 10 µM
- IC50 [10]: > 10 µM
- % of control [11]: 14%
- % of control [12]: 16%
- IC50 [13]: > 10 µM
- IC50 [14]: > 10 µM
- IC50 [15]: > 10 µM
- % of control [16]: 12%
- IC50 [17]: > 10 µM
- IC50 [18]: > 10 µM
